Measured values taken from the METLIN SMRT retention time set (Domingo-Almenara et al. 2019).

Experiment: gradient 5% acetonitrile 3 min, to 50% in 2 min, to 85% in 15 min, held 3 min, 100 µL/min
Settings: column: Zorbax Extend-C18 2.1 x 50 mm; eluents: water / acetonitrile, 0.1% formic acid
Method in brief: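 In both positive and negative ionization mode, a quadrupole time-of-flight mass spectrometer coupled to HPLC analyzed pure standards run in mixtures of ~100 molecules. The Zorbax Extend-C18 column (2.1 × 50 mm, 1.8 μm) was operated at 100 μL/min with water and acetonitrile, each containing 0.1% formic acid. The dead volume was 40 μL and the dwell volume 900 μL. Retention time came from adduct peaks that were computationally picked and individually inspected by hand.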

Row | SMILES | RP-LC retention time [s]
1 | CCN1CCn2cc(S(=O)(=O)N3CCN(c4ccccc4)CC3)cc2C1=O | 684
2 | CCCNC(=O)C1CCCN(c2nc3ccsc3c(=O)n2-c2cccc(OC)c2)C1 (stereo unspecified) | 735
3 | CCc1ccccc1NC(=O)C(C)n1cnc2nc(N3CCCCC3)ncc2c1=O (stereo unspecified) | 882
4 | Cn1nnc2c(N3CCN(C(=O)C(C)(C)Oc4ccc(Cl)cc4)CC3)ncnc21 | 850
5 | O=c1ccc(-c2ccc(F)cc2)nn1CCc1nc(-c2ccncc2)no1 | 758
6 | COc1ccc(OC)c2c(C)cc(N3CCN(S(=O)(=O)c4ccc(C)cc4)CC3)nc12 | 798
7 | CCN1CCN(CCCNC(=O)C2CCN(c3nc4cccnc4n(CC)c3=O)CC2)CC1 | 580
8 | CCCc1ccc(S(=O)(=O)N2CCC3(CC2)NCCN=C3NCc2ccccc2OC)cc1 | 836
9 | COc1ccc(C)cc1NC(=O)Cn1c(N2CCOCC2)nc(C)cc1=O | 719
10 | CC1CCN(C(=O)C2CCN(S(=O)(=O)c3cc(C(=O)N4CCCC4)n(C)c3)CC2)CC1 | 750
11 | COc1cc(-c2nnc(/C=C/c3cccs3)o2)cc(OC)c1OC | 886
12 | CCn1cc(CCN2CCC(C(=O)NC3CCCCC3)CC2)c2cccnc21 | 619
13 | O=C1CCCN1CCCN1C(=O)[C@H]2CN(Cc3ccccc3Cl)C[C@H]2C1=O | 596
14 | COc1ccc(-c2csc(NC(=O)Cc3csc(C)n3)n2)cc1 | 828
15 | Cn1c(N2CCC(C(=O)N3CCN(c4ccc(F)cc4)CC3)CC2)cc(=O)n(C)c1=O | 704
16 | CCOC(=O)c1cnc2c(C)c(Cl)ccc2c1NCCN(C)C | 562
17 | CCOc1cc(=O)n2c(c1C(=O)Nc1cccc3c1CCCC3)CCCC2 | 804
18 | O=C(COc1ccc(F)cc1)N1CCCCC1CCN1CCCCC1 (stereo unspecified) | 648
19 | Cc1csc(-c2cc(S(=O)(=O)NCC3CCCCC3)cn2CC(=O)N2CCCCC2)n1 | 1100
20 | Cc1ccc(CNC(=O)C2(C)CCN(C(=O)Nc3ccc4c(c3)OCCO4)CC2)cc1 | 751

Row | SMILES | RP-LC retention time [s]
21 | CCC(=O)NCCc1csc(C2CCCN(C(=O)C(C)(C)C)C2)n1 (stereo unspecified) | 685
22 | CS(=O)(=O)N1CCC(C(=O)Nc2nc3c(s2)COCC3)CC1 | 604
23 | COc1ccc(-n2cc(C(=O)OCC(=O)OC(C)(C)C)c3ccccc3c2=O)cc1 | 1140
24 | Cc1ccc(N2CC(c3noc(-c4cccn4C)n3)CC2=O)cc1 (stereo unspecified) | 611
25 | COCCNC(=O)Cc1csc(SCC(=O)c2cccs2)n1 | 669
26 | c1cc(N2CCSCC2)ncc1-c1noc(CN2CCOCC2)n1 | 702
27 | Cc1cccc(C(=O)Nc2cc(-c3ccsc3)no2)c1 | 992
28 | COc1cccc(-c2ccc(=O)n(Cc3nc(-c4cccc(Br)c4)no3)n2)c1 | 1110
29 | O=C(C1CCN(c2nc3ccc(-c4cccs4)nc3s2)CC1)N1CCCC1 | 893
30 | CC(C)S(=O)(=O)N1CC(N(C)Cc2cccnc2)C1 | 562
31 | COc1cccc(CC(=O)N2CCc3nc[nH]c3C2)c1 | 572
32 | Cc1ccc(F)cc1NS(=O)(=O)c1cc2n(c1)CCN(C(C)C)C2=O | 783
33 | O=c1ccc(-c2nc(-c3ccc(F)cc3)no2)nn1Cc1cc(F)cc(F)c1 | 1110
34 | COc1ccc(-c2nnc(CC(=O)NCC3CC3)o2)cc1 | 732
35 | CCn1nc(C)c2ccnc(N3CCC(C(=O)N4CCN(c5cccc(OC)c5)CC4)CC3)c21 | 712
36 | O=C(NCc1cccs1)c1coc(NC(=O)C2CC2)n1 | 614
37 | Cc1cc(C)c(S(=O)(=O)Nc2ccc(Cn3cncn3)cc2)cc1C | 762
38 | Cc1cccc(-c2nc(Cn3nnc(-c4nc(-c5ccccc5Br)no4)c3C)c(C)o2)c1 | 1310
39 | O=C(NCc1cccc(Cl)c1)C1=C2CCCN2c2ccc(F)cc2S1(=O)=O | 933

The remaining lines, values ahead:

Row | RP-LC retention time [s] | SMILES
40 | 597 | Cc1ccc(C(=O)N2CCC(c3nc(-c4ccncc4)n[nH]3)CC2)s1
41 | 591 | Cc1ccc(-n2c(=O)n(CC(=O)NCCCN3CCOCC3)c3cccnc32)cc1
42 | 623 | O=C1CCC2(CNC(=O)NCCc3ccccc3)CCCC=C2N1 (stereo unspecified)
43 | 838 | COc1ccc(-c2c(C)noc2NC(C)=O)cc1S(=O)(=O)NCC(C)c1ccccc1 (stereo unspecified)
44 | 818 | Cc1ccc(N2C(=O)CN(S(C)(=O)=O)CC2(C)C(=O)NCc2ccc(F)cc2)cc1C (stereo unspecified)
45 | 875 | Cc1oc(-c2ccc(NC(=O)c3ccc(N(C)C)cc3)cc2)nc1Cn1cccn1
46 | 582 | CCOC(=O)Nc1ccc(S(=O)(=O)N2CCC(c3nc4ccccc4[nH]3)CC2)cc1
47 | 770 | CC(C)N1CCN(Cc2ccc(C(=O)NCc3ccccc3C(F)(F)F)cc2)C(=O)C1=O
48 | 610 | Cc1cccc(CN2CCCn3nc(C(=O)NCCc4cnc[nH]4)cc3C2=O)c1
49 | 626 | Cn1cc(-c2cc3n(n2)CCC(=O)N3CC(=O)N2CCN(c3ccccn3)CC2)c2ccccc21
50 | 706 | CCN1CCN(C(=O)C2CCCN(c3nc4ccccc4n(Cc4ccccc4)c3=O)C2)CC1 (stereo unspecified)
51 | 1080 | COc1ccc(CNC(=O)c2cc3sccc3n2Cc2ccc(F)cc2)cc1
52 | 595 | COCc1cc(=O)n(CC(=O)NCc2ccccc2)c(N)n1
53 | 1020 | O=c1c2ccccc2c(-c2nc(-c3ccncc3)no2)cn1-c1cccc(Cl)c1
54 | 1190 | COc1ccc(NC(=O)C2CCCN(c3nc4c(s3)c(C)nn4-c3ccccc3)C2)cc1Cl (stereo unspecified)
55 | 805 | O=C(NCc1ccc2c(c1)OCO2)C1=C2CCCN2c2ccccc2S1(=O)=O
56 | 805 | Cc1ccc(C(=O)NCCn2c(=O)n(Cc3ccccc3)c3cccnc32)s1
57 | 690 | Cc1c(F)cccc1NC(=O)N1CCC(c2cc(=O)n3nccc3n2C)CC1
58 | 958 | Cc1ccc(CNC(=O)CSc2nccc(N3CCN(c4cc(C)ccc4C)CC3)n2)cc1
59 | 907 | CCOC(=O)c1c2c3c(cccc3n(C)c1=O)C(=O)c1ccccc1-2
60 | 845 | CCc1ccccc1NC(=O)CN1C(=O)CCCc2cc(S(=O)(=O)N3CCCC3)ccc21
61 | 641 | CCn1cc(-c2ccncc2)cc1C(=O)NCc1ccc2c(c1)OCO2
62 | 698 | CSc1ccc(CNC(=O)Cn2c(C)cc(C)c(C#N)c2=O)cc1
63 | 622 | O=C(Nc1cc(-c2ccco2)nn1CCO)c1ccc(S(=O)(=O)N2CCOCC2)cc1
64 | 1100 | Cc1ccc(Cn2cccc2C(=O)C(=O)NC2CCCC2)cc1
65 | 803 | Cn1nnc2cc(-c3noc(CN4C(=O)COc5ccccc54)n3)ccc21
66 | 789 | CCOc1ccccc1NC(=O)C1CCN(S(=O)(=O)c2ccc3[nH]c(=O)ccc3c2)CC1
